{"source": "patent US7015211B2", "about": "(Yale University, priority 2003, dated 2006)", "key": {"[1]": {"molecular_target": "T1, ligand binding domain (LBD) of human ERα (M250-V595) (Homo sapiens, UniProt P03372)", "T1 construct": "human ERα (M250-V595); made in house; host or cells: Escherichia coli (lysate used)", "T1 sequence (P03372 250-595)": "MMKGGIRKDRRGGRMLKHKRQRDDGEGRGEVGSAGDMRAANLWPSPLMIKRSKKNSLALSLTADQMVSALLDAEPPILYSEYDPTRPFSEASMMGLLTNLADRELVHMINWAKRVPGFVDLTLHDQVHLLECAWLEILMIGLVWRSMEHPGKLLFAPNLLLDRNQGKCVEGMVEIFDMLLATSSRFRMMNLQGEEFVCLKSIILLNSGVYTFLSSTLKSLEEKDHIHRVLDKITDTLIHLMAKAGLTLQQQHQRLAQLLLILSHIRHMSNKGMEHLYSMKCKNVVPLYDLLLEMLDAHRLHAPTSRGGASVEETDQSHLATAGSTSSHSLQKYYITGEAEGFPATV", "assay": "Competitive binding to the LBD of human ERα in E. coli lysates"}, "[2]": {"molecular_target": "T2, ligand binding domain (LBD) of human ERβ (M214-Q530) (Homo sapiens, UniProt Q92731)", "T2 construct": "human ERβ (M214-Q530); made in house; host or cells: Escherichia coli (lysate used)", "T2 sequence (Q92731 214-530)": "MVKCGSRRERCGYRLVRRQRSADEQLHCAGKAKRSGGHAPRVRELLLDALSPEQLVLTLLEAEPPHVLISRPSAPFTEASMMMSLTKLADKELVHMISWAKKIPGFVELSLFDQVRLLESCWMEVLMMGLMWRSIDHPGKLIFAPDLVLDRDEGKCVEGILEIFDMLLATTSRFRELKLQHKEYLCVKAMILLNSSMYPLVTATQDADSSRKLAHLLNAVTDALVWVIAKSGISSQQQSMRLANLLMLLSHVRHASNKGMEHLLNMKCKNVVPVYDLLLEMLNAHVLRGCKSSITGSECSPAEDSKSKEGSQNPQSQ", "assay": "Competitive binding to the LBD of human ERβ in E. coli lysates", "conditions": "RBA compared to E2 (=100), [3H]E2, ± SD"}, "[3]": {"system": "human endometrial adenocarcinoma cells (Ishikawa)", "assay": "Estrogenic potency in Ishikawa cells, induction of alkaline phosphatase (AlkP)", "format": "cell-based", "description": "Estrogenic Potency in Ishikawa Cells. The estrogenic potency of the E2-analogs was determined in an estrogen bioassay, the induction of alkaline phosphatase (AlkP) in human endometrial adenocarcinoma cells (Ishikawa) grown in 96-well microtiter plates as we have previously described.^38 In short, the cells are grown in phenol red free medium with estrogen depleted (charcoal stripped) bovine serum in the presence or absence of varying amounts of the steroids, across a dose range of at least 6 orders of magnitude. […] After 3 days, the cells are washed, frozen and thawed, and then incubated with 5 mM p-nitrophenyl phosphate, a chromogenic substrate for the AlkP enzyme, at pH 9.8. To ensure linear enzymatic analysis, the plates are monitored kinetically for the production of p-nitrophenol at 405 nm. […] Each compound was analyzed in at least 3 separate experiments performed in duplicate."}, "[4]": {"system": "esterase, rat hepatic microsomes", "assay": "Esterase hydrolysis in rat hepatic microsomes", "format": "in vitro ADME", "description": "Esterase. Esterase activity was measured in rat hepatic microsomes essentially using the conditions described^41 with some minor modifications. Briefly, rat hepatic microsomes were incubated with 50 μM E2-alkyl ester. Since the rates of reaction are widely different for the various esters, the incubation times and enzyme concentration were varied accordingly to obtain linear kinetics. In every experiment, E16-1,2 was run concurrently to normalize the rate of hydrolysis of each compound. At several appropriate time points during the incubation (37° C.), 100 μL aliquots were quenched with a solution of 2 μg of the internal standard, 6-ketoestradiol in 33 μL of CH3CN, 33 μL of THF and 5 μL of glacial HOAc. The mixture was centrifuged and analyzed for the esterase-hydrolysis product (the corresponding E2-carboxylic acid) by reversed phase HPLC: E16-1,0; E15-1,0; E15-2,0; and E15-3,0 by HPLC with system H-29. Peaks for the hydrolysis product (E16-1,0 tR=10.7 min; E15-1,0 tR=6.9 min; E15-2,0 tR=9.9 min; E15-3,0 tR=14 min;) and the internal standard (tR=11.8 min for system H-29 and tR=8.8 min for system H-30 were quantified at 280 nm on the HPLC UV detector. The UV absorbance was converted to nmoles of product by comparison to standard curves and corrected for recovery of the internal standard, 6-ketoestradiol. The velocity of the reaction for each ester, in nmol product/min/mg protein, was then normalized to the ester, E16-1,2 and is shown in Table 1 as relative hydrolytic activity (RHA) The enzymatic velocity for the hydrolysis of E16-1,2 was 2.34±0.8 (S.D.) nmol product/min/mg protein over the various experiments. All compounds were tested in triplicate in at least 2 separate experiments"}, "uterus of immature rats": {"system": "uterus of immature rats", "assay": "In vivo estrogen bioassay: uterine weight (uterotrophic assay, systemic)", "design": "species or system rat", "description": "In Vivo Estrogen Bioassays: Uterine Weight. […] Control animals received sesame oil. On the fourth day, the animals were killed, the uteri were removed, dissected, blotted and weighed. Except where noted, each compound was assayed in 2 separate experiments with n=5."}, "[5]": {"system": "vagina of ovariectomized mice", "assay": "In vivo estrogen bioassay: vaginal reductases (local)", "design": "species or system mouse", "description": "In Vivo Estrogen Bioassays: Vaginal reductases. […] The formazan product in the organic extract is quantified at 500 nm. Except where noted, each compound was assayed on at least 2 separate occasions with at least 5–6 replicates each time."}, "[6]": {"molecular_target": "T3, ER (ERα) in uterine cytosol (Rattus norvegicus, UniProt P06211)", "T3 sequence (P06211 1-600)": "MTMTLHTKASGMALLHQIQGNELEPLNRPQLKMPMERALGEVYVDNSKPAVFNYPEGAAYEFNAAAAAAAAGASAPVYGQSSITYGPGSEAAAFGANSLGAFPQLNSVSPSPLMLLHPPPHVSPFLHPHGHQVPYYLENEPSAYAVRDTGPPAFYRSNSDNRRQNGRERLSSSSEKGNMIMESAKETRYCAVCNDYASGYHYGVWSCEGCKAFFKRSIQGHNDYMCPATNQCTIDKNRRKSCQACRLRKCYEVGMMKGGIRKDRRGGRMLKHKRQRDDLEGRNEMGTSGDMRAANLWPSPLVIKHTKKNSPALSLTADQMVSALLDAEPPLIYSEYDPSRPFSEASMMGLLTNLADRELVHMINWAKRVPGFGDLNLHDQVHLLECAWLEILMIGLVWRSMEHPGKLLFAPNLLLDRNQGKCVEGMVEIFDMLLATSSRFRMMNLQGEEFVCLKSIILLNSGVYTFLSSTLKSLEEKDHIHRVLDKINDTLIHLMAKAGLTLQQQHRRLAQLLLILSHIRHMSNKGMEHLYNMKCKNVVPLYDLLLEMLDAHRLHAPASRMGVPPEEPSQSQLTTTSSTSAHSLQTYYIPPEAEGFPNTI", "assay": "Competitive binding to the estrogen receptor in rat uterine cytosol"}}, "note": "Entries after “also recorded” stand apart in the source; their conditions may differ.", "data": [{"compound": "CCOC(=O)[C@H]1C[C@H](O)[C@@]2(C)CC[C@@H]3c4ccc(O)cc4CC[C@H]3[C@H]12", "note": "[E15-1,2, Ethyl(3,17β-dihydroxyestra-1,3,5(10)-trien-15α-yl)formate]", "values": [{"measurement": "selectivity / preference for ERα", "setting": "[1]; ERα versus ERβ LBD", "value": "about 3 fold"}, {"measurement": "ERα RBA", "setting": "[1]; RBA compared to E2 (=100), LBD of human ERα in E. coli lysates, [3H]E2, ± SD", "value": "22 ± 5"}, {"measurement": "ERα/ERβ (ratio of RBA)", "setting": "[1]; ratio RBA of ERα/ERβ, human LBDs, ± SD", "value": "3 ± 0.6"}, {"measurement": "ERβ RBA", "setting": "[2]", "value": "7 ± 2"}, {"measurement": "Ishikawa cell AlkP (RSA)", "setting": "[3]; relative stimulatory activity = EC50 of E2 / EC50 of analog x 100, E2 = 100, 3 days, ± SD", "value": "18 ± 10"}, {"measurement": "RSA", "setting": "[3]; relative to E2", "value": 18, "unit": "%"}, {"measurement": "Esterase (RHA)", "setting": "[4]", "value": "2.3 ± 0.1"}, {"measurement": "uterotrophic response (in words)", "setting": "uterus of immature rats; 100 μg dose", "value": "neither of these 15α-substituted estrogens produced a statistically significant uterotrophic response; also recorded: neither of these 15α-alkyl esters produce a statistically significant estrogenic response in the uterus; also recorded: inactive in the uterotrophic assay"}, {"measurement": "uterotrophic stimulation at 300 μg dose, equivalent ng of E2", "setting": "uterus of immature rats; 300 μg dose, statistically significant (P<0.05)", "value": "5 ng of E2"}, {"measurement": "Uterotrophic R.A × 10^3", "setting": "uterus of immature rats; activity relative to E2, × 10^3, 100 μg dose, n.s. = not significantly different from the control", "value": "n.s."}, {"measurement": "Vaginal R.A × 10^3", "setting": "[5]; activity relative to E2, × 10^3, 50 ng dose", "value": 0.42}, {"measurement": "activity in the vaginal assay (in words)", "setting": "[5]; mouse, in vivo", "value": "very active in the vaginal assay"}, {"measurement": "Estrogen Receptor (RBA)", "setting": "[6]; relative binding affinity, E2 = 100, rat uterine cytosol, 1 nM [3H]E2, ± SD", "value": "25 ± 12"}, {"measurement": "RBA", "setting": "[6]; relative to E2", "value": 25, "unit": "%"}]}]}
